Values after ≈ are worked out from the molar mass of the structure shown.
Columns and labels:
Assay type in all cases: functional
Streptococcus suis = experiment: Antimicrobial activity against Streptococcus suis P1/7 assessed as inhibition of visible growth of bacteria incubated for 20 hrs by broth microdilution method
Staphylococcus aureus = experiment: Antimicrobial activity against Staphylococcus aureus ATCC 29213 assessed as inhibition of visible growth of bacteria incubated for 20 hrs by broth microdilution method
Enterococcus faecium = experiment: Antimicrobial activity against Enterococcus faecium QF31 harboring erythromycin resistance rRNA methylase B and chloramphenicol-florfenicol resistance methylase assessed as inhibition of visible growth of bacteria incubated for 20 hrs by broth microdilution method
Enterococcus faecalis = experiment: microbe, parasite or virus in culture; details: SF23-1, time 20 hrs
Description: Antimicrobial activity against Enterococcus faecalis SF23-1 harboring erythromycin-resistance rRNA methylase B, tetracycline efflux protein L and chloramphenicol-florfenicol resistance methylase assessed as inhibition of visible growth of bacteria incubated for 20 hrs by broth microdilution method

| Compound | MIC (Streptococcus suis) [µg/mL] | MIC (Staphylococcus aureus) [µg/mL] | MIC (Enterococcus faecium) [µg/mL] | MIC (Enterococcus faecalis) [µg/mL] |
| --- | --- | --- | --- | --- |
| CC1(C)C/C(=C\c2ccc(-c3ccc(Cl)c(C(F)(F)F)c3)o2)c2nc3ccccc3c(C(=O)O)c2C1 | 32 (≈ 62.5 µM) | 32 (≈ 62.5 µM) | 8 (≈ 15.6 µM) | 4 (≈ 7.81 µM) |
| FC(F)(F)c1cc(-c2ccc(/C=C3\CCCc4c3nc3ccccc3c4Cl)o2)ccc1Cl | > 64 | > 64 | 64 (≈ 135 µM) | > 64 |
| O=C(O)C1=c2ccccc2=NC2/C(=C/c3cccc(-c4ccc(Cl)c(C(F)(F)F)c4)c3)CCC12 (stereo not drawn) | > 64 | > 64 | > 64 | > 64 |
| O=C(O)c1c2c(nc3ccccc13)/C(=C/c1ccc(-c3ccc(Cl)cc3)o1)CCC2 | 32 (≈ 76.9 µM) | 16 (≈ 38.5 µM) | 16 (≈ 38.5 µM) | > 64 |
| CC1(C)C/C(=C\c2ccc(-c3cccc(Cl)c3Cl)o2)c2nc3ccccc3c(C(=O)O)c2C1 | > 64 | 16 (≈ 33.4 µM) | 8 (≈ 16.7 µM) | 8 (≈ 16.7 µM) |
| O=C(O)c1c2c(nc3ccccc13)/C(=C/c1ccc(-c3cccc(Cl)c3)o1)CCC2 | 16 (≈ 38.5 µM) | 16 (≈ 38.5 µM) | 16 (≈ 38.5 µM) | > 64 |
| CC1C/C(=C\c2ccc(-c3ccc(Cl)cc3)o2)c2nc3ccccc3c(C(=O)O)c2C1 (racemic) | 32 (≈ 74.4 µM) | 8 (≈ 18.6 µM) | 16 (≈ 37.2 µM) | > 64 |
| COc1ccc(-c2ccc(/C=C3\CC(C)Cc4c3nc3ccccc3c4C(=O)O)o2)cc1 (racemic) | 32 (≈ 75.2 µM) | > 64 | 16 (≈ 37.6 µM) | > 64 |
| CC1C/C(=C\c2ccc(-c3ccc(Cl)c(C(F)(F)F)c3)o2)c2nc3ccccc3c(C(=O)O)c2C1 (racemic) | 32 (≈ 64.3 µM) | 2 (≈ 4.02 µM) | 8 (≈ 16.1 µM) | 8 (≈ 16.1 µM) |
| CC1C/C(=C\c2ccc(-c3cccc(Cl)c3Cl)o2)c2nc3ccccc3c(C(=O)O)c2C1 (racemic) | 64 (≈ 138 µM) | 2 (≈ 4.31 µM) | 8 (≈ 17.2 µM) | 8 (≈ 17.2 µM) |
| CC1C/C(=C\c2ccc(-c3cccc(Cl)c3Cl)cc2)c2nc3ccccc3c(C(=O)O)c2C1 (racemic) | > 64 | 2 (≈ 4.22 µM) | 8 (≈ 16.9 µM) | 8 (≈ 16.9 µM) |
| CC1C/C(=C\c2ccc(-c3ccc(Cl)c(C(F)(F)F)c3)o2)c2nc3ccccc3c(C(=O)N3CCN(C)CC3)c2C1 (racemic) | > 64 | > 64 | > 64 | > 64 |
| CC1C/C(=C\c2ccc(-c3ccc(Cl)c(C(F)(F)F)c3)nc2)c2nc3ccccc3c(C(=O)O)c2C1 (racemic) | > 64 | 4 (≈ 7.86 µM) | 8 (≈ 15.7 µM) | 8 (≈ 15.7 µM) |
| CC1C/C(=C\c2cccc(-c3ccc(Cl)c(C(F)(F)F)c3)c2)c2nc3cc(N4CCOCC4)ccc3c(C(=O)O)c2C1 (racemic) | 8 (≈ 13.5 µM) | 8 (≈ 13.5 µM) | 4 (≈ 6.74 µM) | 32 (≈ 54 µM) |
| CC1C/C(=C\c2cccc(-c3ccc(Cl)c(C(F)(F)F)c3)c2)c2nc3cc(N4CCN(C)CC4)ccc3c(C(=O)O)c2C1 (racemic) | 8 (≈ 13.2 µM) | 16 (≈ 26.4 µM) | 8 (≈ 13.2 µM) | 8 (≈ 13.2 µM) |
| CC1C/C(=C\c2cccc(-c3ccc(Cl)c(C(F)(F)F)c3)c2)c2nc3ccccc3c(C(N)=O)c2C1 (racemic) | > 64 | > 64 | > 64 | > 64 |
| CC1C/C(=C\c2ccco2)c2nc3ccccc3c(C(=O)O)c2C1 (racemic) | 32 (≈ 100 µM) | > 64 | 16 (≈ 50.1 µM) | > 64 |
| COc1ccc2nc3c(c(C(=O)O)c2c1)CC(C)C/C3=C\c1ccc(-c2ccc(Cl)c(C(F)(F)F)c2)cc1 (racemic) | > 64 | 4 (≈ 7.44 µM) | 4 (≈ 7.44 µM) | 4 (≈ 7.44 µM) |
| Cc1ccc(-c2ccc(/C=C3\CC(C)Cc4c3nc3ccccc3c4C(=O)O)o2)c(Cl)c1 (racemic) | > 64 | 4 (≈ 9.01 µM) | 16 (≈ 36 µM) | 8 (≈ 18 µM) |

| Compound | MIC (Streptococcus suis) [µg/mL] | MIC (Staphylococcus aureus) [µg/mL] | MIC (Enterococcus faecium) [µg/mL] | MIC (Enterococcus faecalis) [µg/mL] |
| --- | --- | --- | --- | --- |
| COc1ccc2nc3c(c(C(=O)O)c2c1)CC(C)C/C3=C\c1ccc(-c2ccc(Cl)c(C(F)(F)F)c2)o1 (racemic) | 64 (≈ 121 µM) | 32 (≈ 60.6 µM) | > 64 | 64 (≈ 121 µM) |
| CC1C/C(=C\c2ccc(-c3ccc([N+](=O)[O-])cc3)o2)c2nc3ccccc3c(C(=O)O)c2C1 (racemic) | > 64 | 64 (≈ 145 µM) | 64 (≈ 145 µM) | > 64 |
| CCCCCCCCc1ccc(-c2ccc(/C=C3\CC(C)Cc4c3nc3ccc(OC)cc3c4C(=O)O)cc2)cc1 (racemic) | 32 (≈ 58.4 µM) | > 64 | 8 (≈ 14.6 µM) | 16 (≈ 29.2 µM) |
| CC1C/C(=C\c2ncc([N+](=O)[O-])n2C)c2nc3ccccc3c(C(=O)O)c2C1 (racemic) | > 64 | > 64 | > 64 | > 64 |
| CC1C/C(=C\c2cccc(-c3ccc(Cl)c(C(F)(F)F)c3)c2)c2nc3ccc(O)cc3c(C(=O)O)c2C1 (racemic) | 4 (≈ 7.63 µM) | 8 (≈ 15.3 µM) | 8 (≈ 15.3 µM) | 16 (≈ 30.5 µM) |
| CC1C/C(=C\c2cccc(-c3ccc(Cl)c(C(F)(F)F)c3)c2)c2nc3ccccc3c(C(=O)O)c2C1 (racemic) | > 64 | 2 (≈ 3.94 µM) | 4 (≈ 7.87 µM) | 4 (≈ 7.87 µM) |
| CC1C/C(=C\c2nc(-c3ccc(Cl)c(C(F)(F)F)c3)cs2)c2nc3ccccc3c(C(=O)O)c2C1 (racemic) | 64 (≈ 124 µM) | 16 (≈ 31.1 µM) | 32 (≈ 62.1 µM) | 16 (≈ 31.1 µM) |
| CC1C/C(=C\c2ccc(-c3c(Cl)cc(C(F)(F)F)cc3Cl)cc2)c2nc3ccccc3c(C(=O)O)c2C1 (racemic) | > 64 | 4 (≈ 7.37 µM) | 8 (≈ 14.7 µM) | 8 (≈ 14.7 µM) |
| CC1C/C(=C\c2cccc(-c3cccc(Cl)c3Cl)c2)c2nc3ccccc3c(C(=O)O)c2C1 (racemic) | > 64 | 4 (≈ 8.43 µM) | 8 (≈ 16.9 µM) | 8 (≈ 16.9 µM) |
| Cc1cc(/C=C2\CC(C)Cc3c2nc2ccccc2c3C(=O)O)cc(C)c1Oc1ccc([N+](=O)[O-])cc1 (racemic) | > 64 | 4 (≈ 8.09 µM) | 8 (≈ 16.2 µM) | 16 (≈ 32.4 µM) |
| COc1ccc2nc3c(c(C(=O)O)c2c1)CC(C)C/C3=C\c1ccc(Oc2c(Cl)cc(N)cc2Cl)cc1 (racemic) | 64 (≈ 120 µM) | 4 (≈ 7.47 µM) | 8 (≈ 14.9 µM) | 16 (≈ 29.9 µM) |
| CCCCCCc1ccc(-c2ccc(/C=C3\CC(C)Cc4c3nc3ccc(OC)cc3c4C(=O)O)cc2)cc1 (racemic) | 32 (≈ 61.6 µM) | 16 (≈ 30.8 µM) | 4 (≈ 7.7 µM) | 8 (≈ 15.4 µM) |
| Cc1cc(/C=C2\CC(C)Cc3c2nc2ccccc2c3C(=O)O)cc(C)c1O (racemic) | > 64 | > 64 | > 64 | > 64 |
| CC1C/C(=C\c2ccc(-c3ccc(Cl)c(Cl)c3)o2)c2nc3ccccc3c(C(=O)O)c2C1 (racemic) | > 64 | 8 (≈ 17.2 µM) | 16 (≈ 34.5 µM) | 8 (≈ 17.2 µM) |
| CC1C/C(=C\c2cccc(-c3ccc(Cl)c(C(F)(F)F)c3)c2)c2nc3ccccc3cc2C1 (racemic) | > 64 | > 64 | > 64 | > 64 |
| CC1C/C(=C\c2cc3ccc(Br)cc3s2)c2nc3ccccc3c(C(=O)O)c2C1 (racemic) | 64 (≈ 138 µM) | 16 (≈ 34.5 µM) | 64 (≈ 138 µM) | 16 (≈ 34.5 µM) |
| COc1ccc2nc3c(c(C(=O)O)c2c1)CC(C)C/C3=C\c1cccc(NC(=O)c2cccc(Cl)c2Cl)c1 (racemic) | > 64 | > 64 | > 64 | > 64 |
| CC1C/C(=C\c2ccc(-c3c(Cl)cc(Cl)cc3Cl)cc2)c2nc3ccccc3c(C(=O)O)c2C1 (racemic) | > 64 | 2 (≈ 3.93 µM) | 8 (≈ 15.7 µM) | 4 (≈ 7.86 µM) |

From ChEMBL document CHEMBL6078677, “Discovery and optimization of tetrahydroacridine derivatives as a novel class of antibiotics against multidrug-resistant Gram-positive pathogens by targeting type I signal peptidase and disrupting bacterial membrane” (Eur J Med Chem, 2025)
